Experimental findings from US20150064111A1, “NOVEL TARGETING AGENTS FOR DIAGNOSTIC AND THERAPEUTIC INDICATIONS” (APOSENSE LTD., priority 2012, published 2015) are described below.

The test system of data set [1] is CD95-treated Jurkat cells. The data set is described as follows: In-vitro screening: uptake of tritiated compounds into apoptotic Jurkat cells. As to conditions: tritiated compound, 30 minutes, 37° C., beta-counter; control untreated uptake set as 1. It counts as cell-based. How it is done:
Uptake was measured using beta counter. zVAD treated cells reversed the phenotype decreasing uptake to control values (set as 1) in all tested candidates. Shown are means±SD of three independent experiments performed in triplicates.
For in-vitro screening of the compounds of the invention, apoptosis-induction model in hematopoietic derived cancer cell line, Jurkat was used.
Jurkat cells were cultured in RPMI supplemented with 10% fetal bovine serum, 4 mM L-glutamine, 100 U/ml penicillin and 100 n/ml streptomycin in a humidified incubator at 37° C., 5% CO2. Cells were counted and re-suspended in hepes buffer saline (HBS).
Apoptosis induction: 10^7 cells/ml were incubated for two hours with 0.1 n/ml of anti-Fas (CD95) antibody. For apoptosis inhibition (specific control), induced and control cells were incubated with 50 μM of the specific caspase inhibitor, Zvad. 2 μl Ci of the tritiated compounds or ML-10 as reference, were added to the cells for 30 minutes. All incubations were performed at 37° C. After incubation with the tritiated compounds, cells were washed twice in HBS, transferred to scintillation liquid and radioactivity was monitored using beta-counter. The percentage of uptake was calculated using the standard DPM readings. […]

The nature of data set [2]: Pharmacokinetic evaluation of tritiated candidates in naive and chemotherapy treated mice. To be noted: mouse, in vivo. From the text:
(§1) In order to determine the pharmacokinetics properties of APO-698, its unlabeled analog, APO-697 was used. Table-1 summarizes the pharmacokinetic study performed in CD1 mice for the two unlabeled (cold) analogs, ML-10 and APO-697.

Data set [3] has as its system human colorectal cancer cells HCT-116 xenografts. The data set is described as follows: In-vivo screening: tumor/blood uptake ratio in HCT-116 xenografts. As to conditions: intravenous tritiated compound, HCT-116 xenograft, FIG. 2 (one and a half hours before samples collection). Further details: species or system Athymic nude mice. How it is done: Athymic nude mice were inoculated with HCT-116 human colorectal cancer cells. Mice were subjected to intravenous injection of tritiated ML-10 and APO-650 one and a half hours before samples collection. Blood samples were taken before sacrificing the animals. Blood and tumor samples radioactivity was measured in a beta-counter.
In order to assess the in-vivo accumulation of ML-10 and compounds of the invention, the uptake into human colorectal cancer cells HCT-116 xenografts was monitored. Athymic nude mice were subcutaneously inoculated with […] HCT-116 cells. After the formation of tumors, ML-10 and APO-650 were intravenously administrated to the mice, 30 and 90 minutes before scarification (n≧8). Peripheral blood samples were collected prior to animals' scarification. Tumors were dissected, homogenized and all samples were calibrated in scintillation fluid before radioactivity was measured in a beta-counter. To inspect signal to noise ratio, the ratio of uptake into the tumor versus blood was calculated.

Data set [4] in a line: Blood partitioning (red blood cells/plasma). Format: in vitro ADME. As to conditions: mouse blood.
From the text: as §1

A short description of data set [5]: Pharmacokinetic study of unlabeled (cold) analogs in CD1 mice. It counts as in vivo. As to conditions: for AUC(0-inf) / half-life / clearance / Vd: mouse, in vivo; for clearance: read-out: Total clearance (converted); for Vd: read-out: Vss; for Total clearance, percentage in brackets / Vss, percentage in brackets: reference of the percentage not explained.
From the text: as §1

With `CC(CCCCC[18F])(c1nnn[nH]1)c1nnn[nH]1` [APO-600, 5,5′(7-^18fluoroheptane-2,2-diyl)bis(1H-tetrazole)], the “fold increase uptake of CD95-treated cells (uptake of the tracer into the apoptotic cells)” value in data set [1] is “high uptake”.

Compound `O=C(O)c1ccc(CCC[18F])cc1C(=O)O` [APO-630, 4-(3-^18fluoropropyl)phthalic acid] came in with a half-life in data set [2] (t1/2) of 10 min. Moreover, the “fold increase uptake of CD95-treated cells (uptake of the tracer into the apoptotic cells)” value in data set [1] is “high uptake”.

In the case of `CN(CCCCC(C)(C(=O)O)C(=O)O)c1ncc([N+](=O)[O-])s1` [APO-650, 2-methyl-2-{4-[(5-nitro-1,3-thiazol-2-yl)tritritiummethylamino]butyl}propanedioic acid], the tumor/blood ratio result in data set [3] is “six-fold”. For the same compound, the half-life in data set [2] (t1/2) was determined as 8 min.

In general, AUC(0-inf) refers to total exposure, with the tail of the curve extrapolated. The low end stands for low exposure, the high end for high exposure. One may read the clearance as the rate of elimination divided by the concentration. `COc1cc2c(c(OC)c1OC)-c1ccc(OC)c(=O)cc1[C@@H](NC(=O)CCCCCC(C)(C(=O)O)C(=O)O)CC2` [APO-697, 2-methyl-2-(5-{[(10S)-3,4,5,14-tetramethoxy-13-oxotricyclo[9.5.0.0{2,7}]hexadeca-1(16),2,4,6,11,14-hexaen-10-yl]carbamoyl}pentyl)propanedioic acid] displayed a KRBC/PL in data set [4] of 0.07. Also, in data set [5] (unlabeled compound), the AUC(0-inf) was found to be 5.16 ng·h/mL, the half-life was found to be 7.92 min, the clearance is 64.7 mL/min/kg and the Vd is 0.435 L/kg. For the same compound, in data set [5] (unlabeled compound), the Total clearance result is “higher”, the Vss result is reported as “higher volume of distribution” and the t1/2 result is “shorter t1/2”. Besides, in data set [5], the “Total clearance, percentage in brackets” value was “(71.9%)” and the “Vss, percentage in brackets” value was “(60.0%)”.

With `CC(CCCCCF)(C(=O)O)C(=O)O` [ML-10, (5-fluoropentyl)(methyl)propanedioic acid, reference compound], the half-life in data set [2] (Naive mice, tritiated, read-out: t1/2) was 10 min. In addition, the KRBC/PL in data set [4] is recorded as 0.01. In data set [5] (unlabeled compound), the area under the curve AUC(0-inf) came out at 32.6 ng·h/mL, the half-life is 11.2 min, the clearance was 10.2 mL/min/kg and the Vd worked out at 0.152 L/kg. In data set [5], the “Total clearance, percentage in brackets” value is given as “(11.4%)” and the “Vss, percentage in brackets” value is recorded as “(21.0%)”.
